In patent publication US6689773B2, “Uracil substituted phenyl sulfamoyl carboxamides” (BASF Aktiengesellschaft, priority 2000, dated 2004):

Tests used:
Format in all cases: in vivo
[1] = tested on: AMBEL, Ragweed, Common, Ambrosia artemiisifolia, L.; experiment: Postemergence herbicidal evaluation (Example 147); settings: rating scale 0-9, two to three weeks after treatment
Summary of the method: (§1)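 ~2-wk seedlings; spray 40 psi; 0.016–0.032 kg/ha a.i. in acetone/water 80/20 + 1.0% methylated seed oil; greenhouse; rated 0–9 visually at 2–3 wk; multiple tests averaged.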

[2] = tested on: GLXMA, Soybean, Glycine max, (L.) Merr.; experiment: Postemergence herbicidal evaluation (Example 147); settings: rating scale 0-9, two to three weeks after treatment
Summary of the method: as §1

[3] = tested on: ABUTH, Velvetleaf, Abutilon theophrasti, Medic.; experiment: Postemergence herbicidal evaluation (Example 147); settings: rating scale 0-9, two to three weeks after treatment
Summary of the method: as §1

[4] = tested on: DIGSA, Crabgrass, (Hairy) L, Digitaria sanguinalis, (L)Scop; experiment: Postemergence herbicidal evaluation (Example 147); settings: rating scale 0-9, two to three weeks after treatment
Summary of the method: as §1

[5] = tested on: CHEAL, Lambsquarters, Chenopodium album, L. Common; experiment: Postemergence herbicidal evaluation (Example 147); settings: rating scale 0-9, two to three weeks after treatment
Summary of the method: as §1

[6] = tested on: XANST, Cocklebur, Xanthium strumariam; experiment: Postemergence herbicidal evaluation (Example 147); settings: rating scale 0-9, two to three weeks after treatment
Summary of the method: as §1

[7] = tested on: IPOHE, Morningglory, Ivyleaf, Ipomoea hederacea, (L)Jacq.; experiment: Postemergence herbicidal evaluation (Example 147); settings: rating scale 0-9, two to three weeks after treatment
Summary of the method: as §1

[8] = tested on: ECHCG, Barnyardgrass, Echinochloa crusgalli, (L.)Beau; experiment: Postemergence herbicidal evaluation (Example 147); settings: rating scale 0-9, two to three weeks after treatment
Summary of the method: as §1

[9] = tested on: ZEAMX, Field corn, Zea mays L.; experiment: Postemergence herbicidal evaluation (Example 147); settings: rating scale 0-9, two to three weeks after treatment
Summary of the method: as §1

[10] = tested on: ALOMY, Blackgrass, Alopecurus myosuroides; experiment: Postemergence herbicidal evaluation (Example 147); settings: rating scale 0-9, two to three weeks after treatment
Summary of the method: as §1

[11] = tested on: SETVI, Green foxtail, Setaria viridis, (L.)Beau; experiment: Postemergence herbicidal evaluation (Example 147); settings: rating scale 0-9, two to three weeks after treatment
Summary of the method: as §1

[12] = tested on: TRZAW, Winter wheat, Tritium Aestivum, L. (Winter); experiment: Postemergence herbicidal evaluation (Example 147); settings: rating scale 0-9, two to three weeks after treatment
Summary of the method: as §1

[13] = tested on: AMBEL, Ragweed, Common, Ambrosia artemiisifolia, L.; experiment: Preemergence herbicidal evaluation (Example 148); settings: rating scale 0-9, two to four weeks after treatment
Summary of the method: (§2)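 Herbicidal effect is a visual score comparing treated plants with a control for stand, vigor, size, malformation and chlorosis. Treatment was a preemergence spray (~0.125–0.250 kg/ha, aqueous acetone); assessment came 2–4 weeks later.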

[14] = tested on: GLXMA, Soybean, Glycine max, (L.) Merr.; experiment: Preemergence herbicidal evaluation (Example 148); settings: rating scale 0-9, two to four weeks after treatment
Summary of the method: as §2

[15] = tested on: ABUTH, Velvetleaf, Abutilon theophrasti, Medic.; experiment: Preemergence herbicidal evaluation (Example 148); settings: rating scale 0-9, two to four weeks after treatment
Summary of the method: as §2

[16] = tested on: DIGSA, Crabgrass, (Hairy) L, Digitaria sanguinalis, (L)Scop; experiment: Preemergence herbicidal evaluation (Example 148); settings: rating scale 0-9, two to four weeks after treatment
Summary of the method: as §2

[17] = tested on: CHEAL, Lambsquarters, Chenopodium album, L. Common; experiment: Preemergence herbicidal evaluation (Example 148); settings: rating scale 0-9, two to four weeks after treatment
Summary of the method: as §2

[18] = tested on: XANST, Cocklebur, Xanthium strumariam; experiment: Preemergence herbicidal evaluation (Example 148); settings: rating scale 0-9, two to four weeks after treatment
Summary of the method: as §2

[19] = tested on: IPOHE, Morningglory, Ivyleaf, Ipomoea hederacea, (L)Jacq.; experiment: Preemergence herbicidal evaluation (Example 148); settings: rating scale 0-9, two to four weeks after treatment
Summary of the method: as §2

[20] = tested on: ECHCG, Barnyardgrass, Echinochloa crusgalli, (L.)Beau; experiment: Preemergence herbicidal evaluation (Example 148); settings: rating scale 0-9, two to four weeks after treatment
Summary of the method: as §2

[21] = tested on: ZEAMX, Field corn, Zea mays L.; experiment: Preemergence herbicidal evaluation (Example 148); settings: rating scale 0-9, two to four weeks after treatment
Summary of the method: as §2

[22] = tested on: ALOMY, Blackgrass, Alopecurus myosuroides; experiment: Preemergence herbicidal evaluation (Example 148); settings: rating scale 0-9, two to four weeks after treatment
Summary of the method: as §2

[23] = tested on: SETVI, Green foxtail, Setaria viridis, (L.)Beau; experiment: Preemergence herbicidal evaluation (Example 148); settings: rating scale 0-9, two to four weeks after treatment
Summary of the method: as §2

[24] = tested on: TRZAW, Winter wheat, Tritium Aestivum, L. (Winter); experiment: Preemergence herbicidal evaluation (Example 148); settings: rating scale 0-9, two to four weeks after treatment
Summary of the method: as §2

Cn1c(C(F)(F)F)cc(=O)n(-c2cc(C(=O)NS(N)(=O)=O)c(Cl)cc2F)c1=O [Example 58]
Postemergence herbicidal rating AMBEL ([1]; rate 0.016 kg/ha): 9.0 | Postemergence herbicidal rating AMBEL ([1]; rate 0.032 kg/ha): 9.0 | Postemergence herbicidal rating GLXMA ([2]; rate 0.016 kg/ha): 8.5 | Postemergence herbicidal rating GLXMA ([2]; rate 0.032 kg/ha): 8.5 | Postemergence herbicidal rating ABUTH ([3]; rate 0.016 kg/ha): 9.0 | Postemergence herbicidal rating ABUTH ([3]; rate 0.032 kg/ha): 9.0 | Postemergence herbicidal rating DIGSA ([4]; rate 0.016 kg/ha): 5.0 | Postemergence herbicidal rating DIGSA ([4]; rate 0.032 kg/ha): 6.0 | Postemergence herbicidal rating CHEAL ([5]; rate 0.016 kg/ha): 8.0 | Postemergence herbicidal rating CHEAL ([5]; rate 0.032 kg/ha): 9.0 | Postemergence herbicidal rating XANST ([6]; rate 0.016 kg/ha): 9.0 | Postemergence herbicidal rating XANST ([6]; rate 0.032 kg/ha): 9.0 | Postemergence herbicidal rating IPOHE ([7]; rate 0.016 kg/ha): 9.0 | Postemergence herbicidal rating IPOHE ([7]; rate 0.032 kg/ha): 9.0 | Postemergence herbicidal rating ECHCG ([8]; rate 0.016 kg/ha): 6.0 | Postemergence herbicidal rating ECHCG ([8]; rate 0.032 kg/ha): 7.0 | Postemergence herbicidal rating ZEAMX ([9]; rate 0.016 kg/ha): 8.0 | Postemergence herbicidal rating ZEAMX ([9]; rate 0.032 kg/ha): 8.0 | Postemergence herbicidal rating ALMOY ([10]; rate 0.016 kg/ha): 3.0 | Postemergence herbicidal rating ALMOY ([10]; rate 0.032 kg/ha): 3.0 | Postemergence herbicidal rating SETVI ([11]; rate 0.016 kg/ha): 8.0 | Postemergence herbicidal rating SETVI ([11]; rate 0.032 kg/ha): 8.0 | Postemergence herbicidal rating TRZAW ([12]; rate 0.016 kg/ha): 4.5 | Postemergence herbicidal rating TRZAW ([12]; rate 0.032 kg/ha): 5.0 | Preemergence herbicidal rating AMBEL ([13]; rate 0.125 kg/ha): 9.0 | Preemergence herbicidal rating AMBEL ([13]; rate 0.25 kg/ha): 9.0 | Preemergence herbicidal rating GLXMA ([14]; rate 0.125 kg/ha): 9.0 | Preemergence herbicidal rating GLXMA ([14]; rate 0.25 kg/ha): 9.0 | Preemergence herbicidal rating ABUTH ([15]; rate 0.125 kg/ha): 9.0 | Preemergence herbicidal rating ABUTH ([15]; rate 0.25 kg/ha): 9.0 | Preemergence herbicidal rating DIGSA ([16]; rate 0.125 kg/ha): 0.0 | Preemergence herbicidal rating DIGSA ([16]; rate 0.25 kg/ha): 3.0 | Preemergence herbicidal rating CHEAL ([17]; rate 0.125 kg/ha): 9.0 | Preemergence herbicidal rating CHEAL ([17]; rate 0.25 kg/ha): 9.0 | Preemergence herbicidal rating XANST ([18]; rate 0.125 kg/ha): 5.0 | Preemergence herbicidal rating XANST ([18]; rate 0.25 kg/ha): 8.0 | Preemergence herbicidal rating IPOHE ([19]; rate 0.125 kg/ha): 9.0 | Preemergence herbicidal rating IPOHE ([19]; rate 0.25 kg/ha): 9.0 | Preemergence herbicidal rating ECHCG ([20]; rate 0.125 kg/ha): 4.0 | Preemergence herbicidal rating ECHCG ([20]; rate 0.25 kg/ha): 6.0 | Preemergence herbicidal rating ZEAMX ([21]; rate 0.125 kg/ha): 0.0 | Preemergence herbicidal rating ZEAMX ([21]; rate 0.25 kg/ha): 1.0 | Preemergence herbicidal rating ALMOY ([22]; rate 0.125 kg/ha): 0.0 | Preemergence herbicidal rating ALMOY ([22]; rate 0.25 kg/ha): 0.0 | Preemergence herbicidal rating SETVI ([23]; rate 0.125 kg/ha): 2.0 | Preemergence herbicidal rating SETVI ([23]; rate 0.25 kg/ha): 6.0 | Preemergence herbicidal rating TRZAW ([24]; rate 0.125 kg/ha): 0.0 | Preemergence herbicidal rating TRZAW ([24]; rate 0.25 kg/ha): 3.0

CCNS(=O)(=O)NC(=O)c1cc(-n2c(=O)cc(C(F)(F)F)n(C)c2=O)c(F)cc1Cl [Example 80]
Postemergence herbicidal rating AMBEL ([1]; rate 0.016 kg/ha): 7.0 | Postemergence herbicidal rating AMBEL ([1]; rate 0.032 kg/ha): 8.0 | Postemergence herbicidal rating GLXMA ([2]; rate 0.016 kg/ha): 8.0 | Postemergence herbicidal rating GLXMA ([2]; rate 0.032 kg/ha): 8.0 | Postemergence herbicidal rating ABUTH ([3]; rate 0.016 kg/ha): 7.0 | Postemergence herbicidal rating ABUTH ([3]; rate 0.032 kg/ha): 9.0 | Postemergence herbicidal rating DIGSA ([4]; rate 0.016 kg/ha): 3.0 | Postemergence herbicidal rating DIGSA ([4]; rate 0.032 kg/ha): 4.0 | Postemergence herbicidal rating CHEAL ([5]; rate 0.016 kg/ha): 3.0 | Postemergence herbicidal rating CHEAL ([5]; rate 0.032 kg/ha): 4.0 | Postemergence herbicidal rating XANST ([6]; rate 0.016 kg/ha): 8.0 | Postemergence herbicidal rating XANST ([6]; rate 0.032 kg/ha): 9.0 | Postemergence herbicidal rating IPOHE ([7]; rate 0.016 kg/ha): 9.0 | Postemergence herbicidal rating IPOHE ([7]; rate 0.032 kg/ha): 9.0 | Postemergence herbicidal rating ECHCG ([8]; rate 0.016 kg/ha): 4.0 | Postemergence herbicidal rating ECHCG ([8]; rate 0.032 kg/ha): 6.0 | Postemergence herbicidal rating ZEAMX ([9]; rate 0.016 kg/ha): 1.5 | Postemergence herbicidal rating ZEAMX ([9]; rate 0.032 kg/ha): 4.0 | Postemergence herbicidal rating ALMOY ([10]; rate 0.016 kg/ha): 0.0 | Postemergence herbicidal rating ALMOY ([10]; rate 0.032 kg/ha): 1.0 | Postemergence herbicidal rating SETVI ([11]; rate 0.016 kg/ha): 5.0 | Postemergence herbicidal rating SETVI ([11]; rate 0.032 kg/ha): 6.0 | Postemergence herbicidal rating TRZAW ([12]; rate 0.016 kg/ha): 3.0 | Postemergence herbicidal rating TRZAW ([12]; rate 0.032 kg/ha): 4.0 | Preemergence herbicidal rating AMBEL ([13]; rate 0.125 kg/ha): 1.0 | Preemergence herbicidal rating AMBEL ([13]; rate 0.25 kg/ha): 3.0 | Preemergence herbicidal rating GLXMA ([14]; rate 0.125 kg/ha): 0.0 | Preemergence herbicidal rating GLXMA ([14]; rate 0.25 kg/ha): 0.0 | Preemergence herbicidal rating ABUTH ([15]; rate 0.125 kg/ha): 1.0 | Preemergence herbicidal rating ABUTH ([15]; rate 0.25 kg/ha): 5.0 | Preemergence herbicidal rating DIGSA ([16]; rate 0.125 kg/ha): 0.0 | Preemergence herbicidal rating DIGSA ([16]; rate 0.25 kg/ha): 1.0 | Preemergence herbicidal rating CHEAL ([17]; rate 0.125 kg/ha): 5.0 | Preemergence herbicidal rating CHEAL ([17]; rate 0.25 kg/ha): 8.0 | Preemergence herbicidal rating XANST ([18]; rate 0.125 kg/ha): 0.0 | Preemergence herbicidal rating XANST ([18]; rate 0.25 kg/ha): 1.0 | Preemergence herbicidal rating IPOHE ([19]; rate 0.125 kg/ha): 0.0 | Preemergence herbicidal rating IPOHE ([19]; rate 0.25 kg/ha): 0.0 | Preemergence herbicidal rating ECHCG ([20]; rate 0.125 kg/ha): 0.0 | Preemergence herbicidal rating ECHCG ([20]; rate 0.25 kg/ha): 3.0 | Preemergence herbicidal rating ZEAMX ([21]; rate 0.125 kg/ha): 0.0 | Preemergence herbicidal rating ZEAMX ([21]; rate 0.25 kg/ha): 0.0 | Preemergence herbicidal rating ALMOY ([22]; rate 0.125 kg/ha): 0.0 | Preemergence herbicidal rating ALMOY ([22]; rate 0.25 kg/ha): 0.0 | Preemergence herbicidal rating SETVI ([23]; rate 0.125 kg/ha): 0.0 | Preemergence herbicidal rating SETVI ([23]; rate 0.25 kg/ha): 0.0 | Preemergence herbicidal rating TRZAW ([24]; rate 0.125 kg/ha): 0.0 | Preemergence herbicidal rating TRZAW ([24]; rate 0.25 kg/ha): 0.0
